Experimental data published in US20210000986A1, “INCLUSION COMPLEXES SUITABLE FOR USE AS A HISTOTRIPSY AGENT” (T.C ISTANBUL MEDIPOL ÜNIVERSITESI, priority 2018, published 2021).

Legend:
kidney HEK-293T cells = assay type: cell-based
Description: The cell viability test is important to determine how the methylated beta-cyclodextrin perfluorohexane inclusion complex interacts with cells in the body.
Inclusion complexes according to the invention were tested using kidney HEK-293T cells from the reticulo-endothelial system organs responsible for cleansing blood in the body and removing various particles and antigens from blood flow and forming inflammatory mediators against immunological stimuli.
For this purpose, beta-cyclodextrin (BCD), methylated beta-cyclodextrin (MCD) and methylated beta-cyclodextrin and perfluorohexane inclusion complex (MIC) solutions at a concentration of 0.1 mg/mL, 0.5 mg/mL and 1 mg/mL were prepared. In addition, perfluorohexane (PFH) at amounts of 0.1 μL, 0.13 μL, 0.15 μL were also tested on the same cells. The amount of perfluorohexane tested was based on the amount of perfluorohexane in 1 mg/mL MIC. It was determined that in 1 mg/mL MIC there is 0.15 μL of perfluorohexane.

[1] = Dynamic light scattering (DLS) size testing; assay type: physicochemical
Description: The size of the complex plays an important role in determining the threshold for histotripsy. Small size particles are more easily injected and they accumulate highly in tumor tissue. […] The results obtained in the DLS tests are shown as a graph in FIG. 2. Herein BCD is beta-cyclodextrin; MBCD is methylated beta-cyclodextrin and MIC refers to the inclusion complex of methylated beta-cyclodextrin and perfluorohexane.

Compound	toxicity (conclusion from cell viability) (kidney HEK-293T cells)	cell viability (kidney HEK-293T cells; human, 0.15 μL) [%]	size (DLS) [1] [nm]
FC(F)(F)C(F)(F)C(F)(F)C(F)(F)C(F)(F)C(F)(F)F [perfluorohexane]	not toxic	89	
methylated beta-cyclodextrin			19.55
OC[C@H]1O[C@@H]2O[C@H]3[C@H](O)[C@@H](O)[C@@H](O[C@H]4[C@H](O)[C@@H](O)[C@@H](O[C@H]5[C@H](O)[C@@H](O)[C@@H](O[C@H]6[C@H](O)[C@@H](O)[C@@H](O[C@H]7[C@H](O)[C@@H](O)[C@@H](O[C@H]8[C@H](O)[C@@H](O)[C@@H](O[C@H]1[C@H](O)[C@H]2O)O[C@@H]8CO)O[C@@H]7CO)O[C@@H]6CO)O[C@@H]5CO)O[C@@H]4CO)O[C@@H]3CO [beta-cyclodextrin]			16.42
